Measured values taken from patent US11040036B2, “Pyruvate kinase activators for use in treating blood disorders” (Agios Pharmaceuticals, Inc., priority 2017, dated 2021).

What was measured:
[1] = molecular target: T1, wild type PKR (Homo sapiens, UniProt P30613); test: PKR mutant assay (AC50), wild type PKR; format: biochemical; details: wild type PKR enzyme; read-out: PKR WT AC50
How it was run: (§1)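 Compounds were tested from 100 μM final, 3-fold over 11 points, and held 60 min at room temperature with enzyme (40-400 ng/well wild-type, R510Q or K410E PKR). ADP 0.2-1.65 mM then started the reaction, with PEP 0.1-0.5 mM in pH 7.5 Tris/KCl/MgCl2 buffer. LDH/NADH (180 μM) coupled read-out was taken as A340 change, fitted to AC50.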

[2] = molecular target: PKR K410E (Homo sapiens, UniProt P30613, K410E); test: PKR mutant assay (AC50), PKR K410E; format: biochemical; details: PKR K410E mutant enzyme
How it was run: as §1

[3] = molecular target: PKR R510Q (Homo sapiens, UniProt P30613, R510Q); test: PKR mutant assay (AC50), PKR R510Q; format: biochemical; details: PKR R510Q mutant enzyme; read-out: PK R510Q AC50
How it was run: as §1

[4] = molecular target: T1, wild type PKR; test: Cell based ATP assay in purified red blood cells; set-up: endogenous in cells; host or cells: purified red blood cells from blood of healthy volunteers; details: RBCs, overnight at 37° C., ATP levels by Cell-Titer-Glo
How it was run: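 ATP content was measured by CellTiter-Glo after overnight exposure to compound at 37 °C. Cells were purified red blood cells from healthy donors, filtered to remove leukocytes and suspended at 1×10^7 cells/mL in AGAM medium. Compounds were serially diluted 1:4, with 0.1% DMSO final.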

Sequence of PKR K410E (P30613 whole entry K410E): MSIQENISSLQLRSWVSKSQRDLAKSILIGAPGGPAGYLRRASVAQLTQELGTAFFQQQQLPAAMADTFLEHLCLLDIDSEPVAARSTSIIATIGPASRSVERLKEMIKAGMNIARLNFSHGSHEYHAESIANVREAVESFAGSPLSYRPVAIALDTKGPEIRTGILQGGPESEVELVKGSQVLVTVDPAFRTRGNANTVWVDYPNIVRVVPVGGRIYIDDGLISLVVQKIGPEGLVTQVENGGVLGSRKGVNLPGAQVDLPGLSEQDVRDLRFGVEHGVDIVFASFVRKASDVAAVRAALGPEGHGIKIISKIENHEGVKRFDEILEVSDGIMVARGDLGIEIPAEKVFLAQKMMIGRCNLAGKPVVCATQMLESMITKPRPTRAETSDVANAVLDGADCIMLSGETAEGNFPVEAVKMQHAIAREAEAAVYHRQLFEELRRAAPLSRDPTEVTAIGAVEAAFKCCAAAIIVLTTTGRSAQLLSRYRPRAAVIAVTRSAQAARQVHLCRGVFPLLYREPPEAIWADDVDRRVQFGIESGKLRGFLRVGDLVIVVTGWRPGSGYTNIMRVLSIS
Sequence of PKR R510Q (P30613 whole entry R510Q): as the sequence (P30613 whole entry K410E) above, with E410K, R510Q counted along it
T1 sequence (P30613 whole entry): as the sequence (P30613 whole entry K410E) above, with E410K counted along it

| SMILES | AC50 [1] | AC50 [2] | AC50 [3] | AC50 [4] |
| --- | --- | --- | --- | --- |
| Cn1ccc(Cn2ncc3c4sc(Cc5cc[nH]n5)nc4n(C)c3c2=O)n1 | < 300 nM | < 300 nM | < 300 nM | ≤ 1000 nM |
| Cn1c2nc(Cc3cc[nH]n3)sc2c2cnn(Cc3cscn3)c(=O)c21 | < 300 nM | < 300 nM | < 300 nM | ≤ 1000 nM |
| Cn1c2nc(Cc3cc[nH]n3)sc2c2cnn(Cc3cnsc3)c(=O)c21 | < 300 nM | < 300 nM | < 300 nM | ≤ 1000 nM |
| Cn1c2nc(Cc3cc[nH]n3)sc2c2cnn(Cc3ncsc3C#N)c(=O)c21 | < 300 nM | < 300 nM | < 300 nM | ≤ 1000 nM |
| Cn1c2nc(Cn3ccc(N)n3)sc2c2cnn(Cc3cc[nH]n3)c(=O)c21 | < 300 nM | < 300 nM | < 300 nM | ≤ 1000 nM |
| Cn1cc(F)c(Cn2ncc3c4sc(Cc5cc[nH]n5)nc4n(C)c3c2=O)n1 | < 300 nM | < 300 nM | < 300 nM | ≤ 1000 nM |
| Cn1cc(Cl)c(Cn2ncc3c4sc(Cc5cc[nH]n5)nc4n(C)c3c2=O)n1 | < 300 nM | < 300 nM | < 300 nM | ≤ 1000 nM |
| Cn1c2nc(Cc3ccccn3)sc2c2cnn(Cc3n[nH]cc3F)c(=O)c21 | < 300 nM | < 300 nM | < 300 nM | ≤ 1000 nM |
| Cn1c2nc(Cc3ccccn3)sc2c2cnn(Cc3n[nH]cc3Cl)c(=O)c21 | < 300 nM | < 300 nM | < 300 nM | ≤ 1000 nM |
| Cn1cc(C#N)c(Cn2ncc3c4sc(Cc5cc[nH]n5)nc4n(C)c3c2=O)n1 | < 300 nM | < 300 nM | < 300 nM | ≤ 1000 nM |
| Cn1cc(C(N)=O)c(Cn2ncc3c4sc(Cc5cc[nH]n5)nc4n(C)c3c2=O)n1 | > 800 nM | 301 to 800 nM | > 800 nM | > 1000 nM |
| Cn1cc(N)c(Cn2ncc3c4sc(Cc5cc[nH]n5)nc4n(C)c3c2=O)n1 | < 300 nM | < 300 nM | < 300 nM | ≤ 1000 nM |
| Cn1c2nc(Cc3cc[nH]n3)sc2c2cnn(Cc3n[nH]cc3C#N)c(=O)c21 | < 300 nM | < 300 nM | < 300 nM | ≤ 1000 nM |
| Cn1c2nc(Cc3cc[nH]n3)sc2c2cnn(Cc3n[nH]cc3C(N)=O)c(=O)c21 | < 300 nM | < 300 nM | < 300 nM | ≤ 1000 nM |
| Cn1cc(C(F)(F)F)c(Cn2ncc3c4sc(Cc5cc[nH]n5)nc4n(C)c3c2=O)n1 | < 300 nM | < 300 nM | < 300 nM | ≤ 1000 nM |
| COc1cn(C)nc1Cn1ncc2c3sc(Cc4cc[nH]n4)nc3n(C)c2c1=O | < 300 nM | < 300 nM | < 300 nM | ≤ 1000 nM |
| Cc1c[nH]nc1Cn1ncc2c3sc(Cc4n[nH]cc4F)nc3n(C)c2c1=O | < 300 nM | < 300 nM | < 300 nM | ≤ 1000 nM |
| Cn1c2nc(Cc3n[nH]cc3F)sc2c2cnn(Cc3cscn3)c(=O)c21 | < 300 nM | < 300 nM | < 300 nM | ≤ 1000 nM |
| Cc1cn(C)nc1Cn1ncc2c3sc(Cc4cc[nH]n4)nc3n(C)c2c1=O | < 300 nM | < 300 nM | < 300 nM | ≤ 1000 nM |
| Cn1c2nc(Cc3n[nH]cc3F)sc2c2cnn(Cc3n[nH]cc3N)c(=O)c21 | < 300 nM | < 300 nM | < 300 nM | ≤ 1000 nM |

| SMILES | AC50 [1] | AC50 [2] | AC50 [3] | AC50 [4] |
| --- | --- | --- | --- | --- |
| Cn1cc(CO)c(Cn2ncc3c4sc(Cc5cc[nH]n5)nc4n(C)c3c2=O)n1 | < 300 nM | < 300 nM | < 300 nM | ≤ 1000 nM |
| Cn1c2nc(Cc3cc[nH]n3)sc2c2cnn(Cc3ncoc3C(N)=O)c(=O)c21 | < 300 nM | < 300 nM | < 300 nM | ≤ 1000 nM |
| Cn1c2nc(Cc3cc[nH]n3)sc2c2cnn(Cc3ccc(C#N)cn3)c(=O)c21 | 301 to 800 nM | < 300 nM | < 300 nM | ≤ 1000 nM |
| Cn1c2nc(Cc3cc[nH]n3)sc2c2cnn(Cc3ccc(C(N)=O)cn3)c(=O)c21 | 301 to 800 nM | < 300 nM | > 800 nM | ≤ 1000 nM |
| Cn1c2nc(Cc3cc[nH]n3)sc2c2cnn(Cc3cccc(C(N)=O)n3)c(=O)c21 | < 300 nM | < 300 nM | < 300 nM | ≤ 1000 nM |
| Cn1c2nc(Cc3cc[nH]n3)sc2c2cnn(Cc3cccc(C#N)n3)c(=O)c21 | < 300 nM | < 300 nM | < 300 nM | ≤ 1000 nM |
| Cn1c2nc(Cc3cc[nH]n3)sc2c2cnn(Cc3ncc(N)s3)c(=O)c21 | < 300 nM | < 300 nM | < 300 nM | ≤ 1000 nM |
| Cn1c2nc(Cc3n[nH]cc3F)sc2c2cnn(Cc3nc(N)ccc3F)c(=O)c21 | < 300 nM | < 300 nM | < 300 nM | ≤ 1000 nM |
| Cn1c2nc(Cc3cc[nH]n3)sc2c2cnn(Cc3n[nH]cc3O)c(=O)c21 | < 300 nM | < 300 nM | < 300 nM | ≤ 1000 nM |
| COc1c[nH]nc1Cn1ncc2c3sc(Cc4n[nH]cc4F)nc3n(C)c2c1=O | < 300 nM | < 300 nM | < 300 nM | ≤ 1000 nM |
| Cc1scnc1Cn1ncc2c3sc(Cc4n[nH]cc4F)nc3n(C)c2c1=O | < 300 nM | < 300 nM | < 300 nM | ≤ 1000 nM |
| Cn1c2nc(Cc3cc[nH]n3)sc2c2cnn(Cc3nc(C#N)cs3)c(=O)c21 | < 300 nM | < 300 nM | < 300 nM | ≤ 1000 nM |
| Cn1c2nc(Cc3cc[nH]n3)sc2c2cnn(Cc3nc(C(N)=O)cs3)c(=O)c21 | < 300 nM | < 300 nM | < 300 nM | ≤ 1000 nM |
| Cn1c2nc(Cc3n[nH]cc3F)sc2c2cnn(Cc3ncsc3Cl)c(=O)c21 | < 300 nM | < 300 nM | < 300 nM | ≤ 1000 nM |
| Cn1c2nc(Cc3cc[nH]n3)sc2c2cnn(Cc3cnc(N)o3)c(=O)c21 | < 300 nM | < 300 nM | 301 to 800 nM | ≤ 1000 nM |
| Cn1cc(OC(F)(F)F)c(Cn2ncc3c4sc(Cc5cc[nH]n5)nc4n(C)c3c2=O)n1 | < 300 nM | < 300 nM | < 300 nM | ≤ 1000 nM |
| Cn1c2nc(Cc3cc[nH]n3)sc2c2cnn(Cc3cnc(C(N)=O)o3)c(=O)c21 | 301 to 800 nM | 301 to 800 nM | 301 to 800 nM | > 1000 nM |
| Cn1c2nc(Cc3cc[nH]n3)sc2c2cnn(Cc3ncsc3F)c(=O)c21 | < 300 nM | < 300 nM | < 300 nM | ≤ 1000 nM |
| Cn1c2nc(Cc3cc[nH]n3)sc2c2cnn(Cc3c[nH]c(C(N)=O)n3)c(=O)c21 | < 300 nM | < 300 nM | < 300 nM | ≤ 1000 nM |
| Cn1c2nc(Cc3cc[nH]n3)sc2c2cnn(Cc3coc(Cl)n3)c(=O)c21 | < 300 nM | < 300 nM | < 300 nM | ≤ 1000 nM |
